Assay results taken from patent publication US10011616B2, “Boron-containing small molecules as antiprotozoal1 agents” (MMV MEDICINES FOR MALARIA VENTURE, priority 2015, dated 2018).
Counter-ions that a name gives are not always drawn.

How the values were obtained:
[1] = tested on: 3D7 strain of Plasmodium falciparum; assay: In vitro activity against 3D7 strain of Plasmodium falciparum ([3H]-hypoxanthine incorporation assay); assay type: cell-based; settings: Erythrocyte, 48 h, P. falciparum 3D7 in human erythrocytes, 2 d, growth inhibition, read-out: IC50: 1 Org. Growth P. falciparum 3D7, 2 d (LPS_00570)
Protocol: In Vitro Activity Against Plasmodium falciparum a) Against 3D7 Strain of Plasmodium falciparum Inhibition of 3D7 strain parasites was assessed using the [^3H]-hypoxanthine incorporation assay (Desjardins, et al. Antimicrob. Agents Chemother. 1979, 16, 710-718). Briefly, parasites were cultured in human erythrocytes (from the Spanish Red Cross blood bank) using RPMI-1640 culture media (Gibco) supplemented with 0.5% Albumax II (Invitrogen), 2% D-sucrose (Sigma-Aldrich), 0.3% glutamine (Sigma-Aldrich), and 5 mM hypoxanthine (Sigma-Aldrich). Cultures were maintained at 37° C. at an atmosphere of 5% O2, 5% CO2, and […]. To assess inhibition, asynchronous parasite cultures with 0.5% parasitemia and 2% hematocrit were exposed to 3-fold serial dilutions of test compounds for 24 hours in 96 well plate cultures (Costar #3894). After 24 hours, [^3H]-hypoxanthine was added, plates were incubated for an additional 24 hours, and parasites were harvested on glass fiber filters (Wallac #1450-421) using a cell harvester 96 (TOMTEC, Perkin Elmer). Filters were dried on scintillator sheets (MeltiLex A, PerkinElmer #1450-441) to determine incorporation of [^3H]-hypoxanthine. Radioactivity was measured using a microbeta counter (Perkin Elmer). Data are normalized using the incorporation of the positive control (infected erythrocytes without drug). IC50 values were determined using Excel and Grafit 5 software. Values were determined from at least three independent experiments, and standard deviations were calculated.

[2] = tested on: W2 strain of Plasmodium falciparum; assay: In vitro activity against W2 strain of Plasmodium falciparum (YOYO-1 flow cytometry); assay type: cell-based; settings: Erythrocyte, 48 h, P. falciparum W2 in human erythrocytes, 2 d, growth inhibition, read-out: IC50: 1 Org. Growth P. falciparum W2, 2 d (LPS_00451)
Protocol: In Vitro Activity Against Plasmodium falciparum
b) Against W2 Strain of Plasmodium falciparum
W2 strain P. falciparum parasites were cultured in human erythrocytes and RPMI-1640 culture media with either 10% human serum or 0.5% Albumax serum substitute under 3% O2, 5% CO2, and 92% N2. Parasites synchronized to ring stage by treatments with 5% D-sorbitol were cultured with serial dilutions of benzoxaboroles from 5 to 10 mM stocks in 96 well microplate cultures including 200 μL of media/well, 2% hematocrit, and 1% parasitemia. At the completion of 48 h incubations, when untreated cultures contained new rings, parasites were fixed with 2% formaldehyde for 48 h, and 5 μL aliquots were transferred to another 96 well plate containing 150 μL/well of staining solution (100 mM NH4Cl, 0.1% Triton X-100, and 1 nM YOYO-1 in PBS). Parasites per erythrocyte were then determined by flow cytometry from plots of forward scatter against fluorescence (excitation 488 nm, emission 520 nm) using a FacSort flow cytometer (Beckton Dickinson) equipped with an AMS Loader (Cytek Development). All values were normalized to percent control activity, and IC50s were calculated using the Prism 3.0 program (GRAPHPAD Software). Goodness of fit was assessed by R^2 values, and meaningful dose-response curves yielded R^2 values >0.95.

Cc1c(Oc2cnc(C(=O)N[C@@H](CO)CS(C)(=O)=O)cn2)ccc2c1B(O)OC2 [Example 36, (S)—N-(1-hydroxy-3-(methylsulfonyl)propan-2-yl)-5-(1-hydroxy-7-methyl-1,3-dihydrobenzo[c][1,2]oxaborol-6-yloxy)pyrazine-2-carboxamide]
IC50 [1]: 0.472 µM | IC50 [2]: 0.201 µM

Cc1c(Oc2cnc(C(=O)N[C@@H](CO)Cc3ccccc3)cn2)ccc2c1B(O)OC2 [Example 27, (R)—N-(1-hydroxy-3-phenylpropan-2-yl)-5-(1-hydroxy-7-methyl-1,3-dihydrobenzo[c][1,2]oxaborol-6-yloxy)pyrazine-2-carboxamide]
IC50 [1]: 0.505 µM | IC50 [2]: 0.115 µM

Cc1c(Oc2cnc(C(=O)N[C@H](C)C(C)(C)O)cn2)ccc2c1B(O)OC2 [Example 48, (R)—N-(3-hydroxy-3-methylbutan-2-yl)-5-(1-hydroxy-7-methyl-1,3-dihydrobenzo[c][1,2]oxaborol-6-yloxy)pyrazine-2-carboxamide]
IC50 [1]: 0.374 µM | IC50 [2]: 0.265 µM

Cc1c(Oc2cnc(C(=O)N3CC(O)(C(C)C)C3)cn2)ccc2c1B(O)OC2 [Example 57, (3-hydroxy-3-isopropylazetidin-1-yl) (5-((1-hydroxy-7-methyl-1,3-dihydrobenzo[c][1,2]oxaborol-6-yl)oxy)pyrazin-2-yl)methanone]
IC50 [1]: 0.369 µM | IC50 [2]: 0.0407 µM

Cc1c(Oc2cnc(C(=O)N(CCO)CCO)cn2)ccc2c1B(O)OC2 [Example 6, 5-(1-hydroxy-7-methyl-1,3-dihydrobenzo[c][1,2]oxaborol-6-yloxy)-N,N-bis(2-hydroxyethyl)pyrazine-2-carboxamide]
IC50 [1]: 0.184 µM | IC50 [2]: 0.328 µM

Cc1c(Oc2cnc(C(=O)N[C@H]3CCC[C@@H]3O)cn2)ccc2c1B(O)OC2 [Example 46, 5-(1-hydroxy-7-methyl-1,3-dihydrobenzo[c][1,2]oxaborol-6-yloxy)-N-((1S,2S)-2-hydroxycyclopentyl)pyrazine-2-carboxamide]
IC50 [1]: 0.537 µM | IC50 [2]: 0.149 µM

Cc1c(Oc2cnc(C(=O)NCC(C)O)cn2)ccc2c1B(O)OC2 (centres unmarked) [Example 9, 5-(1-hydroxy-7-methyl-1,3-dihydrobenzo[c][1,2]oxaborol-6-yloxy)-N-(2-hydroxypropyl)pyrazine-2-carboxamide]
IC50 [1]: 1.1 µM | IC50 [2]: 1.28 µM

CC[C@@H](NC(=O)c1cnc(Oc2ccc3c(c2C)B(O)OC3)cn1)C(C)(C)O [Example 45, (R)—N-(2-hydroxy-2-methylpentan-3-yl)-5-(1-hydroxy-7-methyl-1,3-dihydrobenzo[c][1,2]oxaborol-6-yloxy)pyrazine-2-carboxamide]
IC50 [1]: 0.222 µM | IC50 [2]: 0.0918 µM

CCC[C@@H](NC(=O)c1cnc(Oc2ccc3c(c2C)B(O)OC3)cn1)C(C)(C)O [Example 43, (R)—N-(2-hydroxy-2-methylhexan-3-yl)-5-((1-hydroxy-7-methyl-1,3-dihydrobenzo[c][1,2]oxaborol-6-yl)oxy)pyrazine-2-carboxamide]
IC50 [1]: 0.553 µM | IC50 [2]: 0.26 µM

C=C[C@@H](CO)NC(=O)c1cnc(Oc2ccc3c(c2C)B(O)OC3)cn1 [Example 29, (S)-5-(1-hydroxy-7-methyl-1,3-dihydrobenzo[c][1,2]oxaborol-6-yloxy)-N-(1-hydroxybut-3-en-2-yl)pyrazine-2-carboxamide]
IC50 [1]: 0.764 µM | IC50 [2]: 0.828 µM

Cc1c(Oc2cnc(C(=O)N3CC(C)(O)C3)cn2)ccc2c1B(O)OC2 [Example 41, (3-hydroxy-3-methylazetidin-1-yl) (5-((1-hydroxy-7-methyl-1,3-dihydrobenzo[c][1,2]oxaborol-6-yl)oxy)pyrazin-2-yl)methanone]
IC50 [1]: 0.0706 µM | IC50 [2]: 0.0326 µM

Cc1c(Oc2cnc(C(=O)N[C@@H](CO)c3ccccc3)cn2)ccc2c1B(O)OC2 [Example 26, (R)—N-(2-hydroxy-1-phenylethyl)-5-(1-hydroxy-7-methyl-1,3-dihydrobenzo[c][1,2]oxaborol-6-yloxy)pyrazine-2-carboxamide]
IC50 [1]: 0.161 µM | IC50 [2]: 0.103 µM

Cc1c(Oc2cnc(C(=O)N3CCNC[C@@H]3CO)cn2)ccc2c1B(O)OC2 [Example 51, (R)-(5-(1-hydroxy-7-methyl-1,3-dihydrobenzo[c][1,2]oxaborol-6-yloxy)pyrazin-2-yl) (2-(hydroxymethyl)piperazin-1-yl)methanone Hydrochloric Acid Salt]
IC50 [1]: 0.151 µM | IC50 [2]: 0.103 µM

CCC[C@H](CO)N(C)C(=O)c1cnc(Oc2ccc3c(c2C)B(O)OC3)cn1 [Example 52, (R)-5-(1-hydroxy-7-methyl-1,3-dihydrobenzo[c][1,2]oxaborol-6-yloxy)-N-(1-hydroxypentan-2-yl)-N-methylpyrazine-2-carboxamide]
IC50 [1]: 0.252 µM | IC50 [2]: 0.0481 µM

Cc1c(Oc2cnc(C(=O)N[C@H](CO)CC(F)(F)F)cn2)ccc2c1B(O)OC2 [Example 34, (S)-5-(1-hydroxy-7-methyl-1,3-dihydrobenzo[c][1,2]oxaborol-6-yloxy)-N-(4,4,4-trifluoro-1-hydroxybutan-2-yl)pyrazine-2-carboxamide]
IC50 [1]: 0.452 µM | IC50 [2]: 0.35 µM

CCC[C@@H](CO)NC(=O)c1cnc(Oc2ccc3c(c2C)B(O)OC3)cn1 [Example 13, (S)-5-(1-hydroxy-7-methyl-1,3-dihydrobenzo[c][1,2]oxaborol-6-yloxy)-N-(1-hydroxypentan-2-yl)pyrazine-2-carboxamide]
IC50 [1]: 0.715 µM | IC50 [2]: 0.297 µM

CCC(CO)NC(=O)c1cnc(Oc2ccc3c(c2C)B(O)OC3)cn1 (centres unmarked) [Example 18, 5-(1-hydroxy-7-methyl-1,3-dihydrobenzo[c][1,2]oxaborol-6-yloxy)-N-(1-hydroxybutan-2-yl)pyrazine-2-carboxamide]
IC50 [1]: 0.725 µM | IC50 [2]: 0.622 µM

C=C[C@H](CO)NC(=O)c1cnc(Oc2ccc3c(c2C)B(O)OC3)cn1 [Example 30, (R)-5-(1-hydroxy-7-methyl-1,3-dihydrobenzo[c][1,2]oxaborol-6-yloxy)-N-(1-hydroxybut-3-en-2-yl)pyrazine-2-carboxamide]
IC50 [1]: 0.536 µM | IC50 [2]: 0.317 µM

Cc1c(Oc2cnc(C(=O)N3CC(O)(C(F)(F)F)C3)cn2)ccc2c1B(O)OC2 [Example 58, (3-hydroxy-3-(trifluoromethyl)azetidin-1-yl) (5-((1-hydroxy-7-methyl-1,3-dihydrobenzo[c][1,2]oxaborol-6-yl)oxy)pyrazin-2-yl)methanone]
IC50 [1]: 0.0139 µM | IC50 [2]: 0.0066 µM

Cc1c(Oc2cnc(C(=O)NCC(C)(C)O)cn2)ccc2c1B(O)OC2 [Example 4, N-(2-hydroxy-2-methylpropyl)-5-(1-hydroxy-7-methyl-1,3-dihydrobenzo[c][1,2]oxaborol-6-yloxy)pyrazine-2-carboxamide]
IC50 [1]: 0.554 µM | IC50 [2]: 0.334 µM

Cc1c(Oc2cnc(C(=O)NC(C)C(C)O)cn2)ccc2c1B(O)OC2 (centres unmarked) [Example 39, 5-(1-hydroxy-7-methyl-1,3-dihydrobenzo[c][1,2]oxaborol-6-yloxy)-N-(3-hydroxybutan-2-yl)pyrazine-2-carboxamide]
IC50 [1]: 1.46 µM | IC50 [2]: 0.513 µM

Cc1c(Oc2cnc(C(=O)N[C@@H](C)CO)cn2)ccc2c1B(O)OC2 [Example 12, (S)-5-(1-hydroxy-7-methyl-1,3-dihydrobenzo[c][1,2]oxaborol-6-yloxy)-N-(1-hydroxypropan-2-yl)pyrazine-2-carboxamide]
IC50 [1]: 0.808 µM | IC50 [2]: 0.844 µM

CSC[C@H](CO)NC(=O)c1cnc(Oc2ccc3c(c2C)B(O)OC3)cn1 [Example 35, (S)—N-(1-hydroxy-3-(methylthio)propan-2-yl)-5-((1-hydroxy-7-methyl-1,3-dihydrobenzo[c][1,2]oxaborol-6-yl)oxy)pyrazine-2-carboxamide]
IC50 [1]: 0.0737 µM | IC50 [2]: 0.37 µM

Cc1c(Oc2cnc(C(=O)NC(CO)C3CC3)cn2)ccc2c1B(O)OC2 (centres unmarked) [Example 22, N-(1-cyclopropyl-2-hydroxyethyl)-5-(1-hydroxy-7-methyl-1,3-dihydrobenzo[c][1,2]oxaborol-6-yloxy)pyrazine-2-carboxamide]
IC50 [1]: 1.15 µM | IC50 [2]: 0.458 µM

Cc1c(Oc2cnc(C(=O)NC(C)(C)CO)cn2)ccc2c1B(O)OC2 [Example 3, N-(1-hydroxy-2-methylpropan-2-yl)-5-(1-hydroxy-7-methyl-1,3-dihydrobenzo[c][1,2]oxaborol-6-yloxy)pyrazine-2-carboxamide]
IC50 [1]: 0.425 µM | IC50 [2]: 0.29 µM
